# Test results as given in article PMC4318710 (Bioorganic & medicinal chemistry letters, 2015).
# Columns and labels:
# [1] = tested on: C57BL/6 mice; test: in vivo serum iron levels in mice after intraperitoneal peptide injection; conditions: 50-100 nmoles/mouse
# [2] = stability on prolonged storage in DMSO; type: physicochemical; conditions: 10 mM solution in DMSO, room temperature, 30 days, LC/MS/MS
Compound,serum iron at 6 and 24 h time points [1],stability in DMSO [2]
CCCCCCCCCCCCCCCCNC(=O)CN(CC(N)=O)C(=O)CCCCCNC(=O)C[C@H](Cc1ccccc1)NC(=O)[C@H](CCCNC(=N)N)NC(=O)[C@H](CSC(=CP(=O)(OCC)OCC)P(=O)(OCC)OCC)NC(=O)[C@H](CCCNC(=N)N)NC(=O)C[C@@H]1CCCN1C(=O)[C@@H](NC(=O)[C@H](Cc1c[nH]cn1)NC(=O)[C@@H](NC(=O)CNCC(=O)O)[C@@H](C)O)C(c1ccccc1)c1ccccc1 [PR73SH],decreased serum iron,99.5±0.5%
CCCCCCCCCCCCCCCCNC(=O)CN(CC(N)=O)C(=O)CCCCCNC(=O)C[C@H](Cc1ccccc1)NC(=O)[C@H](CCCNC(=N)N)NC(=O)[C@H](CS)NC(=O)[C@H](CCCNC(=N)N)NC(=O)C[C@@H]1CCCN1C(=O)[C@@H](NC(=O)[C@H](Cc1c[nH]cn1)NC(=O)[C@@H](NC(=O)CNCC(=O)O)[C@@H](C)O)C(c1ccccc1)c1ccccc1 [PR73],decreased serum iron,
